ChEMBL document CHEMBL5104095, “Proteolysis targeting chimera (PROTAC) in drug discovery paradigm: Recent progress and future challenges” (Eur J Med Chem, 2021)
Blank lines part the entries; values can stand above or below the compound they belong to.

How the values were obtained:
[1] = molecular target: Protein cereblon-NS3 (Hepacivirus hominis, UniProt A3EZJ3+Q96SW2); experiment: PROTAC activity at CRBN/NS3 of HCV assessed as induction of NS3-eGFP-2A-mCherry degradation incubated for 4 hrs by flow cytometry
Chain of Protein cereblon-NS3 (A3EZJ3 whole entry): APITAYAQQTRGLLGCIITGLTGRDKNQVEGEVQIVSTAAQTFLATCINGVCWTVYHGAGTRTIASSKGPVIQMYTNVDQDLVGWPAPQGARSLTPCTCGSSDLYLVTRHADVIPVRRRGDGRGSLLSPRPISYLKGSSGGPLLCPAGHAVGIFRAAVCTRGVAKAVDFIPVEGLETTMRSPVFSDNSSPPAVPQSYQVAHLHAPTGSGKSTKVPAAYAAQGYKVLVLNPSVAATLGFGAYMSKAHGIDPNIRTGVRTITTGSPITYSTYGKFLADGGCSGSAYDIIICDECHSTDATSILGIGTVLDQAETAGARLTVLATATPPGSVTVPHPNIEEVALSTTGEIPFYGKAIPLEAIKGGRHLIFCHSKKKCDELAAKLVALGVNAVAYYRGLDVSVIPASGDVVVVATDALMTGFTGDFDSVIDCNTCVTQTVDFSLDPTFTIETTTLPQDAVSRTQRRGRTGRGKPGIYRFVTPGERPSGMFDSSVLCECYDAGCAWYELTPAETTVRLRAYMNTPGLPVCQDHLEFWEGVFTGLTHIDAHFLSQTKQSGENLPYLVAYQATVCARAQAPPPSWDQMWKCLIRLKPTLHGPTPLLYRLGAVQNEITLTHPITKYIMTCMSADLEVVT
Chain of Protein cereblon-NS3 (Q96SW2 whole entry): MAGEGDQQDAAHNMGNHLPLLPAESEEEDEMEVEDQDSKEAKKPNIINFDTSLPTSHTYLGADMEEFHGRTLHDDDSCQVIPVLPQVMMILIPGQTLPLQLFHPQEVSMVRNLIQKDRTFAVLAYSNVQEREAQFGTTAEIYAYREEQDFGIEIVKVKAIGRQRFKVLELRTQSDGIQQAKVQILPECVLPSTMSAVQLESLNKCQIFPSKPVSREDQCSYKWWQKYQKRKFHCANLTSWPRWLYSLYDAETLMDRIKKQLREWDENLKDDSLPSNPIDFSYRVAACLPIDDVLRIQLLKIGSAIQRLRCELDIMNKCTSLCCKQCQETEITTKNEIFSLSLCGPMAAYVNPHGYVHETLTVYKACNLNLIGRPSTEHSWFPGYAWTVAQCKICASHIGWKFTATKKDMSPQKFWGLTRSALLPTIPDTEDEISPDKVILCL

[2] = molecular target: T1, Protein cereblon/Retinal rod rhodopsin-sensitive cGMP 3',5'-cyclic phosphodiesterase subunit delta (Homo sapiens, UniProt O43924+Q96SW2); experiment: PROTAC activity at CRBN/PDEdelta in human PancTu-I assessed as induction of PDEdelta degradation incubated for 24 hrs by immunoblot analysis relative to control; format: cell-based
[3] = molecular target: T1, Protein cereblon/Retinal rod rhodopsin-sensitive cGMP 3',5'-cyclic phosphodiesterase subunit delta; experiment: PROTAC activity at CRBN/PDEdelta in human PancTu-I assessed as induction of PDEdelta degradation incubated for 24 hrs by immunoblot analysis; format: cell-based
[4] = molecular target: von Hippel-Lindau disease tumor suppressor/Focal adhesion kinase 1 (Homo sapiens) (UniProt Q05397+P40337); experiment: PROTAC activity at VHL/FAK in human PC-3 cells assessed as induction of FAK degradation incubated for 24 hrs by immunoblot analysis relative to control; format: cell-based
Chain of von Hippel-Lindau disease tumor suppressor/Focal adhesion kinase 1 (Homo sapiens) (P40337 whole entry partner): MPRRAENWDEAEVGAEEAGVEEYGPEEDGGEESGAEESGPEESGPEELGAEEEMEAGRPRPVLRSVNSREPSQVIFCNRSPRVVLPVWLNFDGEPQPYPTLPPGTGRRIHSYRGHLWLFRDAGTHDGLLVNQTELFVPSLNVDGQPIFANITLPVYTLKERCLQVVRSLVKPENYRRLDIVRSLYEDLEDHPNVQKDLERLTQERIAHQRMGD
Chain of von Hippel-Lindau disease tumor suppressor/Focal adhesion kinase 1 (Homo sapiens) (Q05397 2-1052 limits assumed): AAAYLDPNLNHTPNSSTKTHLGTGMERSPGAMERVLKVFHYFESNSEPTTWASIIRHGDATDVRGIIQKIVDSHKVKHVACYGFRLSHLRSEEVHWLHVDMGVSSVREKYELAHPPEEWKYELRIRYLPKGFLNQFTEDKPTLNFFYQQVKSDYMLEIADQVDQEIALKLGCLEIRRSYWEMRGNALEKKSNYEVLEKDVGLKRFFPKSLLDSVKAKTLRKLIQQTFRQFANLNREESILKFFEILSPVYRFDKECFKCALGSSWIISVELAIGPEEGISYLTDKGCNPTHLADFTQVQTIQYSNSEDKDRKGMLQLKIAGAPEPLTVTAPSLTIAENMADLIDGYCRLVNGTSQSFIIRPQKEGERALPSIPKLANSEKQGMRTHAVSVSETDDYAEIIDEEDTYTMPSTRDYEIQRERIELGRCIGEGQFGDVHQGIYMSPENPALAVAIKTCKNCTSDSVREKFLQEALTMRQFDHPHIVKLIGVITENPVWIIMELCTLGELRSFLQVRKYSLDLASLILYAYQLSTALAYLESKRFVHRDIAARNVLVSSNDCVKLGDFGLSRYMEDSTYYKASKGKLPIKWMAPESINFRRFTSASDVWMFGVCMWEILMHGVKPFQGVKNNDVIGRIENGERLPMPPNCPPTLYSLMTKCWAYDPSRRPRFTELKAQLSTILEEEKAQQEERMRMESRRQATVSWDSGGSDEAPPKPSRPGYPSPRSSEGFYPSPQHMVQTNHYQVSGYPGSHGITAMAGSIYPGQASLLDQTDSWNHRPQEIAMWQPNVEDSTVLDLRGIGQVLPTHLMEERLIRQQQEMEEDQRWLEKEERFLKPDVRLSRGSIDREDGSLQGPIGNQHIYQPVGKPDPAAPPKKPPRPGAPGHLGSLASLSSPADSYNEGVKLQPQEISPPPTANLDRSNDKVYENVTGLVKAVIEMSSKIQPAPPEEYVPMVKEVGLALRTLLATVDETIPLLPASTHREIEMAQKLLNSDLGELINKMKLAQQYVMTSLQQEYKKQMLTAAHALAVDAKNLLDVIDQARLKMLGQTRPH

[5] = molecular target: von Hippel-Lindau disease tumor suppressor/Focal adhesion kinase 1 (Homo sapiens, UniProt P40337+Q05397); experiment: PROTAC activity at VHL/FAK in human PC-3 cells assessed as induction of FAK degradation incubated for 24 hrs by immunoblot analysis; format: cell-based
[6] = molecular target: Protein cereblon/Tyrosine-protein kinase BTK (Homo sapiens, UniProt Q06187+Q96SW2, C481S); experiment: PROTAC activity at CRBN/BTK C481S mutant transfected in human HeLa cells assessed as induction of BTK C481S degradation incubated for 4 days by immunoblot analysis; format: cell-based
[7] = molecular target: T2, Protein cereblon/Tyrosine-protein kinase BTK (Homo sapiens, UniProt Q06187+Q96SW2); experiment: PROTAC activity at CRBN/BTK in human MINO cells assessed as reduction in BTK level incubated for 24 hrs by Western blot analysis relative to control; format: cell-based
Target sequence in this assay (Q06187 2-659 limits assumed): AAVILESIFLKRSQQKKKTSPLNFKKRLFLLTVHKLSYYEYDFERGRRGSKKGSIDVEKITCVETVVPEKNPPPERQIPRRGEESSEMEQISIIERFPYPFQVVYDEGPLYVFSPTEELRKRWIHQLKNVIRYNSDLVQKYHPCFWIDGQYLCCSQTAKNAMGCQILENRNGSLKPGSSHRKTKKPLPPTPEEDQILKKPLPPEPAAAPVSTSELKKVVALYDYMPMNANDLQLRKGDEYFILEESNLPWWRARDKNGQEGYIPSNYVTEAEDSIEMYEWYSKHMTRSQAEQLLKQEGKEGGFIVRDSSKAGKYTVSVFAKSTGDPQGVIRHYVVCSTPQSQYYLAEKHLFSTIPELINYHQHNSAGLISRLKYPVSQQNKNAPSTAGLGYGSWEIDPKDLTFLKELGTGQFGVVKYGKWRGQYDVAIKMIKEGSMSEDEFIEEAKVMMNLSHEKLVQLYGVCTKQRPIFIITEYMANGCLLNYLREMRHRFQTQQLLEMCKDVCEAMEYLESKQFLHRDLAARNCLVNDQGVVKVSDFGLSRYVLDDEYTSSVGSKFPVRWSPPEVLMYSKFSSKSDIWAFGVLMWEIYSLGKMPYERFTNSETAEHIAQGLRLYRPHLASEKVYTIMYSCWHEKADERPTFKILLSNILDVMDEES
Target sequence in this assay (Q96SW2 whole entry partner): as the sequence (Q96SW2 whole entry) above

[8] = molecular target: T2, Protein cereblon/Tyrosine-protein kinase BTK; experiment: PROTAC activity at CRBN/BTK in human MINO cells assessed as reduction in BTK level incubated for 24 hrs by Western blot analysis; format: cell-based
Target sequence in this assay (Q06187 whole entry): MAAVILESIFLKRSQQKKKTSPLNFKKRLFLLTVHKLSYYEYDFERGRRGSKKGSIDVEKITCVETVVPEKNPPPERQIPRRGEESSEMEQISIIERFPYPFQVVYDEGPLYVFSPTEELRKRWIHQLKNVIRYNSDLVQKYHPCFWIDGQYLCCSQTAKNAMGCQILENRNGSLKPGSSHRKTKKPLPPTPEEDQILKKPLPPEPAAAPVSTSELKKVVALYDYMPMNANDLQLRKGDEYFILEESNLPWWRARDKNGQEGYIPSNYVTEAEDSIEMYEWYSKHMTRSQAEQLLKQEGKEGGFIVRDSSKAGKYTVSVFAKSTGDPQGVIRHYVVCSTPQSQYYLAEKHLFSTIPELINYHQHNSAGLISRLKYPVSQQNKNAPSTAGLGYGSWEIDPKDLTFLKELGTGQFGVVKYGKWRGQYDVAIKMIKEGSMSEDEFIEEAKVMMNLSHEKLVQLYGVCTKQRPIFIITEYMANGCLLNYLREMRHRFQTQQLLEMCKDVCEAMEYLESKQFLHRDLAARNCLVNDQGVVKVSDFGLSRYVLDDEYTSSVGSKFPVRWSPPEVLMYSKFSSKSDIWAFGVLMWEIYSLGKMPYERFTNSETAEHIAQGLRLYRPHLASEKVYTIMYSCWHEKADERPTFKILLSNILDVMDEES
Target sequence in this assay (Q96SW2 whole entry): as the sequence (Q96SW2 whole entry) above

[9] = molecular target: BRD4/E3 ubiquitin-protein ligase Mdm2 (Homo sapiens) (UniProt Q00987+O60885); experiment: PROTAC activity at MDM2/BRD4 in human HCT-116 cells assessed as induction of BRD4 degradation incubated for 24 hrs by immunoblot analysis relative to control; format: cell-based
[10] = molecular target: BRD4/E3 ubiquitin-protein ligase Mdm2 (Homo sapiens, UniProt O60885+Q00987); experiment: PROTAC activity at MDM2/BRD4 in human HCT-116 cells assessed as induction of BRD4 degradation incubated for 24 hrs by immunoblot analysis; format: cell-based
[11] = tested on: PC-3; experiment: Antiproliferative activity against human PC-3 cells assessed as inhibition of cell proliferation incubated for 48 hrs by CCK8 assay; format: functional, cell-based; conditions: PC-3, 48 h
[12] = molecular target: von Hippel-Lindau disease tumor suppressor/Barrier-to-autointegration factor (Homo sapiens, UniProt O75531+P40337); experiment: PROTAC activity at VHL/BAF in human MV4-11 cells assessed as induction of BAF degradation incubated for 18 hrs by Western blot analysis; format: cell-based
Chain of von Hippel-Lindau disease tumor suppressor/Barrier-to-autointegration factor (P40337 whole entry): as the sequence (P40337 whole entry partner) above
Chain of von Hippel-Lindau disease tumor suppressor/Barrier-to-autointegration factor (O75531 whole entry): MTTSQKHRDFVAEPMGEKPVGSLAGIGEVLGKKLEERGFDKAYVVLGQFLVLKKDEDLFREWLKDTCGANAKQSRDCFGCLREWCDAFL

[13] = molecular target: von Hippel-Lindau disease tumor suppressor/Barrier-to-autointegration factor (Homo sapiens) (UniProt P40337+O75531); experiment: PROTAC activity at VHL/BAF in human MV4-11 cells assessed as induction of BAF degradation incubated for 18 hrs by Western blot analysis relative to control; format: cell-based
[14] = molecular target: Alpha-1A adrenergic receptor (Homo sapiens, UniProt P35348); experiment: PROTAC activity at CRBN/A1AR in human HEK293 cells assessed as induction of A1AR degradation incubated for 12 hrs by Western blot analysis; format: cell-based
[15] = molecular target: Protein cereblon/Adenosine receptor A1 (Homo sapiens) (UniProt P30542+Q96SW2); experiment: PROTAC activity at CRBN/A1AR in human HEK293 cells assessed as induction of A1AR degradation at 10 micromol/L incubated for 12 hrs by Western blot analysis relative to control; format: cell-based; conditions: dose 10.0 µmol/L

SMILES: CCC[C@H](NC(=O)[C@@H]1[C@H]2CCC[C@H]2CN1C(=O)[C@@H](NC(=O)[C@@H](NC(=O)c1cnc(C(=O)NCCOCCOCCNc2cccc3c2C(=O)N(C2CCC(=O)NC2=O)C3=O)cn1)C1CCCCC1)C(C)(C)C)C(=O)C(=O)NC1CC1 (some centres undefined)
EC50 [1]: 489 nM

SMILES: Cc1ncsc1-c1ccc(CNC(=O)[C@@H]2C[C@@H](O)CN2C(=O)[C@@H](NC(=O)CCOCCOc2ccc(Nc3ncc(C(F)(F)F)c(NCc4cccc(N(C)S(C)(=O)=O)c4)n3)cc2)C(C)(C)C)cc1
Emax [4]: 99%
EC50 [5]: 3 nM

SMILES: Nc1ncnc2c1c(-c1ccc(Oc3ccccc3)cc1)nn2[C@@H]1CCCN(C(=O)c2cn(CCOCCOCCOCCNc3cccc4c3C(=O)N(C3CCC(=O)NC3=O)C4=O)nn2)C1 (some centres undefined)
EC50 [6]: 30 nM

SMILES: COc1cc(C(=O)NCCOCCOCCOCCNC(=O)C[C@@H]2N=C(c3ccc(Cl)cc3)c3c(sc(C)c3C)-n3c(C)nnc32)ccc1NC(=O)[C@@H]1N[C@@H](CC(C)(C)C)[C@](C#N)(c2ccc(Cl)cc2F)[C@H]1c1cccc(Cl)c1F
Emax [9]: 98%
EC50 [10]: 32 nM

SMILES: COc1cc2nc(N3CCN(C(=O)c4ccco4)CC3)nc(N)c2cc1OC [PRAZOSIN]
IC50 [11]: 11700 nM

Further lines, results first:

Emax [2]: 85%
EC50 [3]: 48 nM
SMILES: O=C1CCC(N2C(=O)c3cccc(NCCOCCOCCOCCOCCNC(=O)c4ccc(CN(CC5CCNCC5)S(=O)(=O)c5ccc(S(=O)(=O)N(Cc6ccc(Cl)cc6)C6CCCC6)cc5)cc4)c3C2=O)C(=O)N1 (centres undefined)

Emax [7]: 90%
EC50 [8]: 10 nM
SMILES: CC(C)(/C=C(\C#N)C(=O)N1CCC[C@H](n2nc(-c3ccc(Oc4ccccc4)cc3)c3c(N)ncnc32)C1)CCCOCCOCCOCCOCCOc1cccc2c1C(=O)N(C1CCC(=O)NC1=O)C2=O (some centres undefined)

EC50 [1]: 50 nM
SMILES: CCC[C@H](NC(=O)[C@@H]1[C@H]2CCC[C@H]2CN1C(=O)[C@@H](NC(=O)[C@@H](NC(=O)c1cnc(C(=O)NCCOCCOCCOc2cc3c4c(cccc4c2)C(=O)N(C2CCC(=O)NC2=O)C3=O)cn1)C1CCCCC1)C(C)(C)C)C(=O)C(=O)NC1CC1 (some centres undefined)

EC50 [12]: < 32 nM
Emax [13]: > 65%
SMILES: Cc1ncsc1-c1ccc(CNC(=O)[C@@H]2C[C@@H](O)CN2C(=O)[C@@H](NC(=O)C2(F)CC2)C(C)(C)C)c(OCCOc2ccc(CN3CCN(c4cc(-c5ccccc5O)nnc4N)CC3)cc2)c1

IC50 [11]: 6120 nM
EC50 [14]: 2860 nM
Emax [15]: 94%
SMILES: COc1cc2nc(N3CCN(C(=O)c4cn(CCOCCOCCOCC(=O)Nc5cccc6c5C(=O)N(C5CCC(=O)NC5=O)C6=O)nn4)CC3)nc(N)c2cc1OC (centres undefined)

Emax [7]: 90%
EC50 [8]: 10 nM
SMILES: Nc1ncnc2c1c(-c1ccc(Oc3ccccc3)cc1)nn2[C@H]1CCCN(C(=O)/C=C/CCCCOCCOCCOCCOCCOc2cccc3c2C(=O)N(C2CCC(=O)NC2=O)C3=O)C1 (some centres undefined)
